According to US8207131B2, “Peptide” (Megmilk Snow Brand Co., Ltd., priority 2006, dated 2012):
No end group written: not given here.

Legend:
[1] = antioxidative activity by linoleic acid-β-carotene degradation method; type: biochemical
Experimental: The antioxidative activity of the peptide fractionated in Example 1 was measured utilizing the β-carotene degradation effect of an oxide of linoleic acid. Specifically, a 300 ml Erlenmeyer flask was charged with 0.5 ml of a β-carotene solution (1 mg/ml chloroform), 0.2 ml of a linoleic acid solution (100 mg/ml chloroform), and 1.0 ml of a Tween 40 solution (200 mg/ml chloroform). After completely removing chloroform using nitrogen gas, 100 ml of distilled water was added to dissolve the components. 9.0 ml of a 0.2 M phosphate buffer (pH: 7.0) was then added to the solution to prepare a linoleic acid-β-carotene solution. 0.18 ml of the linoleic acid-β-carotene solution was added to a […] microwell plate to which 0.02 ml of the peptide fraction was provided. The absorbance S0 at 490 nm was measured immediately after the addition. When preparing the linoleic acid-β-carotene solution, the amount of the β-carotene solution was appropriately adjusted so that the absorbance S0 was about 1.2 (1.1 to 1.3). The microwell plate was placed in a thermostat bath at 50° C. immediately after measuring the absorbance S0, and the peptide fraction was incubated for 30 minutes. The absorbance S30 was measured immediately after incubation. A decrease (ΔS=S0−S30) in absorbance at 490 nm over 30 minutes was then calculated. 70% ethanol was used as a blank instead of the sample and subjected to the above operation. Specifically, the absorbance B0 immediately after adding the linoleic acid-β-carotene solution and the absorbance B30 after being kept at 50° C. for 30 minutes were measured, and a decrease (ΔB=B0−B30) in absorbance at 490 nm over 30 minutes was calculated. The antioxidative activity (antioxidation rate (%)) was determined by substituting the resulting values in the following expression. Antioxidation rate (%)=[ΔB−ΔS]/(ΔB)×100
As a positive control, carnosine (β-Ala-L-His; manufactured by Peptide Institute, Inc.) (muscle-derived antioxidative peptide) prepared to a concentration of 0.01 μg/ml, 0.1 μg/ml, or 1 μg/ml was used.
The antioxidative activity of the peptide obtained in Example 2 was measured in the same manner as in Test Example 1. As a positive control, carnosine (β-Ala-L-His; manufactured by Peptide Institute, Inc.) (muscle-derived antioxidative peptide) and catechin (manufactured by Wako Pure Chemical Industries, Ltd.) (1 μm, 10 μm, or 100 μm) were used. Table 2 and FIG. 3 show the evaluation results for the antioxidative activity of the synthetic peptide.
The antioxidative activities of the two peptides (i.e., tryptic digests) obtained in Examples 3 and the tryptic digest before fractionation were measured using a carotene degradation method in the same manner as in Test Example 2. The peptide concentration was determined by dissolving each peptide in 500 μl of pure water and measuring the peptide concentration using a Micro BCA Protein assay kit (manufactured by Pierce). As a positive control, carnosine (β-Ala-L-His; manufactured by Peptide Institute, Inc.) and catechin (manufactured by Wako Pure Chemical Industries, Ltd.) were used in the same manner as in Test Example 2. A diluted solution (1 ng/ml, 10 ng/ml, and 100 ng/ml) was prepared for each fragment, and the antioxidative activity was evaluated using the β-carotene degradation method.

[2] = test system: rat primary-cultured visceral fat cells (VAC01); assay: peptide adipocyte administration experiment; type: cell-based
Experimental: Experiments were conducted in which the peptide isolated from the cheese in Example 1 was administered to primary-cultured visceral fat cells.
The experiments were conducted using rat primary-cultured visceral fat cells (VAC01, manufactured by Cell Garage Co., Ltd.) and a visceral fat cytodifferentiation medium (manufactured by Cell Garage Co., Ltd.). Cells preserved in a frozen state in accordance with the protocol provided by Cell Garage Co., Ltd. were melted and disseminated in a 24-well plate (zeroth day). A culture medium (peptide concentration: 100 μM, 50 μM, 10 μM, or 0 μM) in which the synthetic peptide was dissolved was added to the 24-well plate on the second day, fifth day, and seventh day, and the synthetic peptide was cultured. The culture supernatant liquid was collected on the fifth day, seventh day, and eighth day to measure the adiponectin level. The cells were collected on the eighth day. The enzyme activity of glycerol-3-phosphate dehydrogenase (GPDH) in the cells, the DNA content of each well, and the intracellular fat accumulation level were measured. GPDH is an enzyme that functions when triglyceride is synthesized from glucose to produce mature fat cells. In this example, preadipocytes were differentiated, and the effect of administration of the peptide according to the present invention was observed.
The DNA content was determined using a DNA quantization kit (manufactured by Cell Garage Co., Ltd.).
The glycerol-3-phosphate dehydrogenase (GPDH) enzyme activity in the cells was measured using a GPDH activity measurement kit (manufactured by Cell Garage Co., Ltd.) in accordance with the protocol provided by Cell Garage Co., Ltd. The measurement results were standardized by the content of DNA extracted from each well.
The adiponectin level in the culture supernatant liquid was measured using an adiponectin ELISA kit (manufactured by Otsuka Pharmaceutical Co., Ltd.). The measurement results were standardized by the content of DNA extracted from each well.
The intracellular fat accumulation was determined by fat staining with oil red O and absorbance measurement using a fat staining kit (manufactured by Cell Garage Co., Ltd.).

[3] = Test Example 3, tryptic digest peptides, 1, 10, 100 ng/ml, FIG. 5
[4] = sample concentration 1 μg/ml, Test Example 2
[5] = sample concentration 10 μg/ml, Test Example 2
[6] = sample concentration 100 μg/ml, Test Example 2
[7] = sample concentration 0.01 μg/ml, Test Example 1
[8] = sample concentration 0.1 μg/ml, Test Example 1
[9] = sample concentration 1 μg/ml, Test Example 1

Compound	antioxidative activity (in words) [1, 3]	Antioxidative activity (%) [1, 4]	Antioxidative activity (%) [1, 5]	Antioxidative activity (%) [1, 6]	Antioxidative activity (%) [1, 7]	Antioxidative activity (%) [1, 8]	Antioxidative activity (%) [1, 9]	other results
His-Pro-Ile-Lys (HPIK; Bovine)	strong antioxidative activity							
catechin [reference compound]		52.65%	84.45%	97.17%				
NCCC(=O)N[C@@H](Cc1cnc[nH]1)C(=O)O [Carnosine, β-Ala-L-His, reference compound]		7.07%	21.2%	48.41%	32.9%	57.8%	78.3%	
HPIKHQGLPQ		32.86%	61.13%	63.6%	13.0%	41.0%	64.6%	production of adiponectin (per unit DNA content) vs cells without peptide ([2]; culture supernatant, seventh day, 10, 50, 100 μM, FIG. 6): significantly more adiponectin; cell DNA content of each well vs group without peptide ([2]; eighth day, Student t-test): a significant difference in cell DNA content was not observed; fat accumulation (oil red O staining) vs cells without peptide ([2]; eighth day, Student t-test, FIG. 7): a significant difference in fat accumulation was not observed; GPDH activity (per unit DNA content) vs group without peptide ([2]; peptide 100 μM, eighth day): A significant difference was not observed; fat accumulation (oil red O staining) ([2]; peptide 100 μM, eighth day): decreased to only a small extent; GPDH activity (per unit DNA content) vs group without peptide ([2]; peptide 10 or 50 μM, eighth day): significantly higher; antioxidative activity (in words) ([1]; Test Example 1, peptide purified from Gouda cheese): had antioxidative activity (radical scavenger activity); antioxidative activity (in words) ([1]; Test Example 2, synthetic peptide, FIG. 3): strong antioxidative activity
HQGLPQ	strong antioxidative activity							
